Patent publication US20230031024A1, “SUBSTITUTED PYRIMIDINIUM COMPOUNDS FOR COMBATING ANIMAL PESTS” (BASF SE, priority 2018, published 2023)

Key:
Assay type in all cases: in vivo
Plutella xylostella = experiment: Diamond back moth (Plutella xylostella) cabbage leaf dip test, larval mortality; conditions: foliar, 3rd instar larvae, 72 hours after treatment, read-out: mortality in comparison with untreated controls
Experimental: B.2. Diamond back moth (Plutella xylostella)
The active compound is dissolved at the desired concentration in a mixture of 1:1 (vol:vol) distilled water: acetone. Surfactant (Alkamuls® EL 620) is added at a rate of 0.1% (vol/vol). The test solution is prepared at the day of use.
Leaves of cabbage were dipped in test solution and air-dried. Treated leaves were placed in petri dish enlined with moist filter paper and inoculated with ten 3rd instar larvae. Mortality was recorded 72 hours after treatment. Feeding damages were also recorded using a scale of 0-100%.

Spodoptera eridania = experiment: Southern armyworm (Spodoptera eridania) 2nd instar larvae, sprayed lima bean plant test; conditions: 96 h, 4 days after treatment, read-out: mortality in comparison with untreated controls
Experimental: B.4. Southern armyworm (Spodoptera eridania), 2nd instar larvae
(§1) The active compounds were formulated in cyclohexanone as a 10,000 ppm solution supplied in tubes. The tubes were inserted into an automated electrostatic sprayer equipped with an atomizing nozzle and they served as stock solutions for which lower dilutions were made in 50% acetone:50% water (v/v). A nonionic surfactant (Kinetic®) was included in the solution at a volume of 0.01% (v/v).
Lima bean plants (variety Sieva) were grown 2 plants to a pot and selected for treatment at the 1st true leaf stage. Test solutions were sprayed onto the foliage by an automated electrostatic plant sprayer equipped with an atomizing spray nozzle. The plants were dried in the sprayer fume hood and then removed from the sprayer. Each pot was placed into perforated plastic bags with a zip closure. About 10 to 11 armyworm larvae were placed into the bag and the bags zipped closed. Test plants were maintained in a growth room at about 25° C. and about 20-40% relative humidity for 4 days, avoiding direct exposure to fluorescent light (24 hour photoperiod) to prevent trapping of heat inside the bags. Mortality and reduced feeding were assessed 4 days after treatment, compared to untreated control plants.

Anthonomus grandis = experiment: Boll weevil (Anthonomus grandis) microtiter plate diet test, egg and larval mortality; conditions: 120 h, egg and larval mortality after 5 days, read-out: mortality in comparison with untreated controls
Experimental: B.1. Boll weevil (Anthonomus grandis)
For evaluating control of boll weevil (Anthonomus grandis) the test unit consisted of 96-wellmicrotiter plates containing an insect diet and 5-10 A. grandis eggs.
The compounds were formulated using a solution containing 75% v/v water and 25% v/v DMSO. Different concentrations of formulated compounds were sprayed onto the insect diet at 5 μl, using a custom-built micro atomizer, at two replications.
After application, microtiter plates were incubated at about 25+1° C. and about 75+5% relative humidity for 5 days. Egg and larval mortality was then visually assessed.

Bemisia argentifolii = experiment: Silverleaf whitefly (Bemisia argentifolii) adults, sprayed cotton plant test; conditions: 72 h, 3 days after treatment, read-out: mortality in comparison with untreated controls
Text: B.3 Silverleaf whitefly (Bemisia argentifolii) (adults)
as §1, with “non-ionic” for “nonionic”
Cotton plants at the cotyledon stage (one plant per pot) were sprayed by an automated electrostatic plant sprayer equipped with an atomizing spray nozzle. The plants were dried in the sprayer fume hood and then removed from the sprayer. Each pot was placed into a plastic cup and about 10 to 12 whitefly adults (approximately 3-5 days old) were introduced. The insects were collected using an aspirator and a nontoxic Tygon® tubing connected to a barrier pipette tip. The tip, containing the collected insects, was then gently inserted into the soil containing the treated plant, allowing insects to crawl out of the tip to reach the foliage for feeding. Cups were covered with a reusable screened lid. […] Mortality was assessed 3 days after treatment, compared to untreated control plants.

CO/N=C(\C)CC1CSc2n(C)c(=O)c(-c3ccccc3)c([O-])[n+]21 (stereo not shown) [C-1, 3-[(2E)-2-methoxyiminopropyl]-8-methyl-7-oxo-6-phenyl-2,3-dihydrothiazolo[3,2-a]pyrimidin-4-ium-5-olate]
> 75%: mortality at 500 ppm (Plutella xylostella) | mortality at 500 ppm (Spodoptera eridania) | mortality at 800 ppm (Anthonomus grandis) | mortality at 500 ppm (Bemisia argentifolii)
